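How tested: cells in 96-well plates exposed to compound for 48 hours at five concentrations. GI50 is the concentration that inhibits growth by half.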 The source made the active and inactive calls. Rule as the data show it: active = GI50 up to about 1.1 µM and inactive = higher.
Columns and labels:
Assay in all cases: DTP human tumour cell line panel, 48 h
TK-10 = system: TK-10
DU-145 = system: DU-145
PC-3 = system: PC-3
COLO 205 = system: COLO 205
SK-MEL-5 = system: SK-MEL-5
HCT-116 = system: HCT-116
HT-29 = system: HT-29
SK-OV-3 = system: SK-OV-3
UACC-62 = system: UACC-62
EKVX = system: EKVX
HCT-15 = system: HCT-15
NCI-H460 = system: NCI-H460
RPMI-8226 = system: RPMI-8226
Hs-578T = system: Hs-578T
SN12C = system: SN12C
UO-31 = system: UO-31
K562 = system: K562
MOLT-4 = system: MOLT-4

Structure (SMILES) | GI50 (TK-10) | GI50 (DU-145) | GI50 (PC-3) | GI50 (COLO 205) | GI50 (SK-MEL-5) | GI50 (HCT-116) | GI50 (HT-29) | GI50 (SK-OV-3) | GI50 (UACC-62) | GI50 (EKVX) | GI50 (HCT-15) [µM] | GI50 (NCI-H460) | GI50 (RPMI-8226) | GI50 (Hs-578T) | GI50 (SN12C) | GI50 (UO-31) | GI50 (K562) | GI50 (MOLT-4)
CC(C)(C)OC(=O)CN1CCN(CC(=O)N2CCN(C(=O)OCc3ccccc3)CC2)CCN(CC(=O)OC(C)(C)C)CCN(CC(=O)N2CCN(C(=O)OCc3ccccc3)CC2)CC1 | 5.92 µM (inactive) | 6.95 µM (inactive) | 2.51 µM (inactive) | 1.15 µM (inactive) | 1.71 µM (inactive) | 3.11 µM (inactive) | 0.318 µM (active) | 3.47 µM (inactive) | 2.67 µM (inactive) | 10.5 µM (inactive) | 6.15 | 1.35 µM (inactive) | 0.942 µM (active) | 1.79 µM (inactive) | 2.76 µM (inactive) | 12.7 µM (inactive) | 0.989 µM (active) | 1.98 µM (inactive)
O=[N+]([O-])c1ccc(C(O)(C#CCN2CCCC2)c2ccccc2)cc1 (stereo not drawn) | 52.1 µM (inactive) | > 100 µM (inactive) | 30.4 µM (inactive) | 18 µM (inactive) | 21 µM (inactive) | 46.6 µM (inactive) | 17 µM (inactive) | 80.7 µM (inactive) | 24.7 µM (inactive) | 54.6 µM (inactive) | 60.7 | 56.2 µM (inactive) | 26.7 µM (inactive) | 28.9 µM (inactive) | 38.3 µM (inactive) | 26.1 µM (inactive) | 19.7 µM (inactive) | 25.8 µM (inactive)
O=C1/C(=C/c2ccc(Cl)cc2)Oc2ccccc21 | 22.7 µM (inactive) | 19.7 µM (inactive) | > 10 µM (inactive) | 47.1 µM (inactive) | 20.4 µM (inactive) | 59.4 µM (inactive) | > 100 µM (inactive) | > 100 µM (inactive) | 58.6 µM (inactive) | 22.1 µM (inactive) | 66.7 | 26.4 µM (inactive) | 58.2 µM (inactive) | 18.7 µM (inactive) | 96.8 µM (inactive) | 16.8 µM (inactive) | > 100 µM (inactive) | 55.6 µM (inactive)
COc1ccc(NC(=S)N/N=C/c2cccc(C)n2)cc1 | 8.13 µM (inactive) | 5.56 µM (inactive) | 4.58 µM (inactive) | 2.63 µM (inactive) | 3.95 µM (inactive) | 3.33 µM (inactive) | 3.94 µM (inactive) | 4.61 µM (inactive) | 2.24 µM (inactive) | 5.11 µM (inactive) | 2.31 | 3.46 µM (inactive) | 3.68 µM (inactive) | 24.7 µM (inactive) | 5.79 µM (inactive) | 3.33 µM (inactive) | 1.62 µM (inactive) | 3.07 µM (inactive)
CCCNC(=O)c1cc(NC(=O)c2cc(NC(=O)CCS(=O)(=O)OC)cn2C)cn1C | 67.5 µM (inactive) | 24.2 µM (inactive) | 10.2 µM (inactive) | 6.64 µM (inactive) | 17.1 µM (inactive) | 12.8 µM (inactive) | 22 µM (inactive) | 9.55 µM (inactive) | 19.8 µM (inactive) | 51.1 µM (inactive) | > 100 | > 100 µM (inactive) | > 100 µM (inactive) | 32.7 µM (inactive) | 13.8 µM (inactive) | > 100 µM (inactive) | 5.2 µM (inactive) | 17.5 µM (inactive)
CCOC(=O)c1cn2c(n1)sc1cc(Cl)ccc12 | > 100 µM (inactive) | 10.7 µM (inactive) | 30.6 µM (inactive) | 5.47 µM (inactive) | 7.76 µM (inactive) | 3.37 µM (inactive) | 17 µM (inactive) | 52 µM (inactive) | 59.7 µM (inactive) | 18.7 µM (inactive) | 5.64 | > 100 µM (inactive) | 8.41 µM (inactive) | 24.7 µM (inactive) | 11.4 µM (inactive) | 7.21 µM (inactive) | 2.86 µM (inactive) | 2.96 µM (inactive)

From ChEMBL document CHEMBL1201862, “PubChem BioAssay data set” (2004)
